Laboratory results taken from publication PMC6105845, “Nucleotide Prodrug Containing a Nonproteinogenic Amino Acid To Improve Oral Delivery of a Hepatitis C Virus Treatment” (Antimicrobial Agents and Chemotherapy, 2018).

Biological target: HINT1 (Homo sapiens, UniProt P49773)
Assay: P-N bond cleavage of metabolite X by HINT1
Type: biochemical
Protocol: Biochemical assays studying prodrug cleavage have been described previously ([8]). In brief, the cleavages of GS2 by CATA, CES1, CES2, and HINT1 were assessed in vitro. The reaction substrates and products were monitored over time by high-performance liquid chromatography (HPLC).

HINT1, sequence (P49773 whole entry): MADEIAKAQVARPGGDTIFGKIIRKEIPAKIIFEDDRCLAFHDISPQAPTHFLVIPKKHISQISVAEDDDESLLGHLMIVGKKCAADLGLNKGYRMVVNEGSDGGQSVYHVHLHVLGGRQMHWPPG

HINT1 specific activity higher than toward metabolite X of GS-6620 [fold]	HINT1 specific activity, P-N bond cleavage [pmol/min/µg]	SMILES
5.7	341	CC(C)(NP(=O)(O)OC[C@H]1O[C@@](C#N)(c2ccc3c(N)ncnn23)[C@](C)(O)[C@@H]1O)C(=O)O [metabolite X of GS2]
	60	C[C@H](NP(=O)(O)OC[C@H]1O[C@@](C#N)(c2ccc3c(N)ncnn23)[C@](C)(O)[C@@H]1O)C(=O)O [metabolite X of GS-6620]
